# Laboratory results published in patent EP0188538B1, “TRANSDERMAL DELIVERY OF AZATADINE” (priority 1984, dated 1986).
# Counter-ions that a name gives are not always drawn. Like-named read-outs stand apart in the source and are kept apart here.
# Key:
# rabbits with intact skin [1] = conditions: in vivo
# Source text: (§1) The irritation results are reported as either irritating (+) or non-irritating (-), and the penetration results are reported as either good (+) or poor (-). […] Eight young adult New Zealand white rabbits were assigned to two groups. The rabbits were housed in stainless steel cages and maintained under standard laboratory conditions. Each cage was identified with a color coded label indicating the test substance, rabbit number, sex, and study number. Food and water were supplied ad libitum. On the day of dosing, the back of each rabbit was clipped free of hair. […] To prevent removal, the chambers were covered with an orthopedic stockinette and secured by a canvas coat.
# [2] = pH 7.4
# Source text: The irritation results are reported as either irritating (+) or non-irritating (-), and the penetration results are reported as either good (+) or poor (-). […] The skin penetration assembly used was similar to that described by Franz (J. Invest. Derm., 64:190, 1975). Excised defatted human skin was stretched across a reservoir containing a phosphate buffer solution . (pH 7.4, 0.02M) in direct contact with the dermal side of the skin. The temperature of this buffer solution was maintained at 37± 0.5°C by circulating water at the appropriate temperature through a jacket which surrounds each assembly. Freshly made preparation was applied to the statum corneum surface. The buffer solution was removed in its entirety and replaced with fresh solution at various time intervals and assayed for azatadine content.
# rabbits with intact skin [3] = assay: Screening of antihistamines for dermal irritation (24/72 hour screen, Draize grading); conditions: 24/72 hour dermal irritation screen in rabbits with intact skin; formulation strength as given in the label
# Source text: as §1
SMILES,Rabbit Dermal Irritation (rabbits with intact skin [1]),further results
"CN1CCC(=C2c3ccccc3CCc3cccnc32)CC1 [Azatadine, 6,11-diydro-11-(1-methyl-4-piperidylidene)-5H-benzo[5,6]cyclohepta[1,2-b]pyridine]",,dermal irritation and/or sensitization (rabbits with intact skin [1]; rabbit): no dermal irritation and/or sensitization; In Vitro Dermal Penetration [2]: (+)
CN(C)CCOC(c1ccc(Cl)cc1)c1ccccn1 (stereo not shown) [Carbinoxamine maleate],(+),
"CN(C)CCC(c1ccc(Cl)cc1)c1ccccn1 (stereo not shown) [Chlorpheniramine base (patch), Chlorpheniramine]",,Rabbit Dermal Irritation (rabbits with intact skin [3]): (+); In Vitro Dermal Penetration [2]: (+)
CN1CCC(=C2c3ccccc3C=Cc3ccccc32)CC1 [Cyprhoheptadine HCl],,Rabbit Dermal Irritation (rabbits with intact skin [3]): (+)
"CN(C)CC[C@@H](c1ccc(Br)cc1)c1ccccn1 [Dexbrompheniramine (10%), Dexbrompheniramine]",(+),
"CN(C)CC[C@@H](c1ccc(Cl)cc1)c1ccccn1 [Dexchlorpheniramine base, Dexchlorpheniramine]",,Rabbit Dermal Irritation (rabbits with intact skin [3]): (+)
CC(C1=C(CCN(C)C)Cc2ccccc21)c1ccccn1 (stereo not shown) [Dimethindine maleate],(+),
CN1CCC(OC(c2ccccc2)c2ccccc2)CC1 [Diphenylpyraline HCl],(+),
CN(C)CCOC(C)(c1ccccc1)c1ccccn1 (stereo not shown) [Doxylamine succinate],(+),
CC(CN1c2ccccc2Sc2ccccc21)N(C)C (stereo not shown) [Promethazine HCl],(+),
Cc1ccc(/C(=C\CN2CCCC2)c2ccccn2)cc1 [Triprolidine HCl],(+),
